Target: Potassium voltage-gated channel subfamily A member 5 (Homo sapiens, UniProt P22460)
Assay: Inhibition of human Kv1.5 channel expressed in mouse L929 cells by EP voltage clamp technique

Potassium voltage-gated channel subfamily A member 5, sequence (P22460 whole entry): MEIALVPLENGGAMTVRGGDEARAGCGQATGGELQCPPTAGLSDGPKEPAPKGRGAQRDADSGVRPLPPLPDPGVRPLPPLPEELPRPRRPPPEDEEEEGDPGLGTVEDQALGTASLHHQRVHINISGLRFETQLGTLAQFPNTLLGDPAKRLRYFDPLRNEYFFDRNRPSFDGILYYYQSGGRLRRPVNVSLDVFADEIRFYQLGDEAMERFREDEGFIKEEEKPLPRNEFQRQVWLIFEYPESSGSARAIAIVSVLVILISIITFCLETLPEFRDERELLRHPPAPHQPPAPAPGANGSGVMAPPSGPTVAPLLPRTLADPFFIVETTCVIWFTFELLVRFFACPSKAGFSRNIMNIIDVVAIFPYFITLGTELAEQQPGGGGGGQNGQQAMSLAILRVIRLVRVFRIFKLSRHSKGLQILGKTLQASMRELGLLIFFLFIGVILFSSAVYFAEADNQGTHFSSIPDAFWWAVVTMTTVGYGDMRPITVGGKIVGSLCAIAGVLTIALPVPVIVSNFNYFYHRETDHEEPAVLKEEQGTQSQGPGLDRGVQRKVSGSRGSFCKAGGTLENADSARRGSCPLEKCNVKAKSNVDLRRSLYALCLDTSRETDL

Row | SMILES | IC50 [nM]
1 | CCN(CC)C(=O)C1C(C)=Nc2ccnn2C1c1ccc(Cl)c(Cl)c1 (stereo unspecified) [7-(3,4-dichlorophenyl)-N,N-diethyl-5-methyl-4,7-dihydropyrazolo[1,5-a]pyrimidine-6-carboxamide] | 440
2 | CC1=Nc2ccnn2C(c2cccc(Cl)c2Cl)C1C(=O)N1CCN(c2ccc(F)cc2)CC1 (stereo unspecified) [(7-(2,3-dichlorophenyl)-5-methyl-4,7-dihydropyrazolo[1,5-a]pyrimidin-6-yl)(4-(4-fluorophenyl)piperazin-1-yl)methanone] | 160
3 | CC1=Nc2ccnn2C(c2cccc(Cl)c2)C1C(=O)N1CCN(c2ccc(F)cc2)CC1 (stereo unspecified) [(7-(3-chlorophenyl)-5-methyl-4,7-dihydropyrazolo[1,5-a]pyrimidin-6-yl)(4-(4-fluorophenyl)piperazin-1-yl)methanone] | 190
4 | CC1=Nc2ccnn2C(c2cc3ccccc3o2)C1C(=O)N1CCN(c2ccc(F)cc2)CC1 (stereo unspecified) [(7-(benzofuran-2-yl)-5-methyl-4,7-dihydropyrazolo[1,5-a]pyrimidin-6-yl)(4-(4-fluorophenyl)piperazin-1-yl)methanone] | 160
5 | CC1=Nc2ccnn2[C@H](c2cccc(Cl)c2Cl)C1C(=O)N1CCN(c2ccc(F)cc2)CC1 (stereo partly drawn) [(S)-(7-(2,3-dichlorophenyl)-5-methyl-4,7-dihydropyrazolo[1,5-a]pyrimidin-6-yl)(4-(4-fluorophenyl)piperazin-1-yl)methanone] | 160
6 | CC1=Nc2ccnn2C(c2ccc(Cl)c(Cl)c2)C1C(=O)NCc1ccccc1 (stereo unspecified) [N-benzyl-7-(3,4-dichlorophenyl)-5-methyl-4,7-dihydropyrazolo[1,5-a]pyrimidine-6-carboxamide] | 160
7 | CC1=Nc2ccnn2C(c2ccc(Cl)c(Cl)c2)C1C(=O)N1CCCCCC1 (stereo unspecified) [azepan-1-yl(7-(3,4-dichlorophenyl)-5-methyl-4,7-dihydropyrazolo[1,5-a]pyrimidin-6-yl)methanone] | 190

Further lines, results first:

Row | IC50 [nM] | SMILES
8 | 200 | CC1=Nc2ccnn2C(c2sc3ccccc3c2C)C1C(=O)N1CCN(c2ccc(F)cc2)CC1 (stereo unspecified) [(4-(4-fluorophenyl)piperazin-1-yl)(5-methyl-7-(3-methylbenzo[b]thiophen-2-yl)-4,7-dihydropyrazolo[1,5-a]pyrimidin-6-yl)methanone]
9 | 200 | COC[C@@H]1CCCN1C(=O)C1C(C)=Nc2ccnn2C1c1ccc(Cl)c(Cl)c1 (stereo partly drawn) [(7-(3,4-dichlorophenyl)-5-methyl-4,7-dihydropyrazolo[1,5-a]pyrimidin-6-yl)((S)-2-(methoxymethyl)pyrrolidin-1-yl)methanone]
10 | 440 | CC1=Nc2ccnn2C(c2ccc(Cl)cc2)C1C(=O)N1CCN(c2ccc(F)cc2)CC1 (stereo unspecified) [(7-(4-chlorophenyl)-5-methyl-4,7-dihydropyrazolo[1,5-a]pyrimidin-6-yl)(4-(4-fluorophenyl)piperazin-1-yl)methanone]
11 | 440 | CCCCNC(=O)C1C(C)=Nc2ccnn2C1c1ccc(Cl)c(Cl)c1 (stereo unspecified) [N-butyl-7-(3,4-dichlorophenyl)-5-methyl-4,7-dihydropyrazolo[1,5-a]pyrimidine-6-carboxamide]

Reference: BindingDB's records for doi:10.1016/j.bmcl.2008.10.099 (Bristol-Myers Squibb, 2008)
